Laboratory results from patent US9920090B2, “Betulinic acid derivatives with HIV maturation inhibitory activity” (priority 2014, dated 2018).

Test system: recombinant NL4-3 virus (nef section replaced with Renilla luciferase gene, Gag P373S)
Assay: HIV Cell Culture Assay (luciferase reporter virus in MT-2 cells)
Type: cell-based
Conditions: NL43
Description: MT-2 cells and 293T cells were obtained from the NIH AIDS Research and Reference Reagent Program. MT-2 cells were propagated in RPMI 1640 media supplemented with 10% heat inactivated fetal bovine serum, […]. The 293T cells were propagated in DMEM media supplemented with 10% heat inactivated fetal bovine serum (FBS), 100 units/mL penicillin G and 100 μg/mL streptomycin. The proviral DNA clone of NL4-3 was obtained from the NIH AIDS Research and Reference Reagent Program. A recombinant NL4-3 virus, in which a section of the nef gene from NL4-3 was replaced with the Renilla luciferase gene, was used as a reference virus. In addition, residue Gag P373 was converted to P373S. Briefly, the recombinant virus was prepared by transfection of the altered proviral clone of NL4-3. Transfections were performed in 293T cells using LipofectAMINE PLUS from Invitrogen (Carlsbad, Calif.), according to manufacturer's instruction. The virus was titered in MT-2 cells using luciferase enzyme activity as a marker. Luciferase was quantitated using the Dual Luciferase kit from Promega (Madison, Wis.), with modifications to the manufacturer's protocol. The diluted Passive Lysis solution was pre-mixed with the re-suspended Luciferase Assay Reagent and the re-suspended Stop & Glo Substrate (2:1:1 ratio). Fifty (50) μL of the mixture was added to each aspirated well on assay plates and luciferase activity was measured immediately on a Wallac TriLux (Perkin-Elmer). Antiviral activities of inhibitors toward the recombinant virus were quantified by measuring luciferase activity in cells infected for 4-5 days with NLRluc recombinants in the presence serial dilutions of the inhibitor.

| Compound | EC50 |
| --- | --- |
| C=C(C)[C@@H]1CC[C@]2(NCCN3CCS(=O)(=O)CC3)C[C@H](O)[C@]3(C)[C@H](CC[C@@H]4[C@@]5(C)CC=C(c6ccc(C(=O)O)cc6)C(C)(C)[C@@H]5C[C@H](O)[C@]43C)[C@@H]12 [Example 3, 4-((1R,3aS,5S,5aR,5bR,6S,7aR,11aS,11bR,13aR,13bR)-3a-((2-(1,1-dioxidothiomorpholino)ethyl)amino)-5,6-dihydroxy-5a,5b,8,8,11a-pentamethyl-1-(prop-1-en-2-yl)-2,3,3a,4,5,5a,5b,6,7,7a,8,11,11a,11b,12,13,13a,13b-octadecahydro-1H-cyclopenta[a]chrysen-9-yl)benzoic acid] | 17 nM |
| C=C(C)[C@@H]1CC[C@]2(C(=O)O)C[C@@H]3OC(C)(C)O[C@H]4C[C@H]5C(C)(C)C(c6ccc(C(=O)O)cc6)=CC[C@]5(C)[C@H]5CC[C@H]([C@@H]12)[C@]3(C)[C@]45C [Example 1, (1R,3aS,4aS,4a1R,7aS,7a1R,8aR,12aS,12bR,14aR,14bR)-10-(4-carboxyphenyl)-4a1,6,6,7a1,9,9,12a-heptamethyl-1-(prop-1-en-2-yl)-2,3,3a,4,4a,4a1,7a,7a1,8,8a,9,12,12a,12b,13,14,14a,14b-octadecahydro-1H-cyclopenta[1,2]chryseno[4,5-def][1,3]dioxepine-3a-carboxylic acid] | 40 nM |
| CC(C)[C@@H]1CC[C@]2(C(=O)O)CC[C@]3(C)[C@H](CC[C@@H]4[C@@]5(C)[C@H](O)C=C(c6ccc(C(=O)O)cc6)C(C)(C)[C@@H]5CC[C@]43C)[C@@H]12 [Example 6, (1S,3aS,5aR,5bR,7aS,11R,11aS,11bS,13aR,13bR)-9-(4-carboxyphenyl)-11-hydroxy-1-isopropyl-5a,5b,8,8,11a-pentamethyl-2,3,3a,4,5,5a,5b,6,7,7a,8,11,11a,11b,12,13,13a,13b-octadecahydro-1H-cyclopenta[a]chrysene-3a-carboxylic acid] | 1730 nM |
| CC(C)[C@@H]1CC[C@]2(NCCN3CCS(=O)(=O)CC3)CC[C@]3(C)[C@H](CC[C@@H]4[C@@]5(C)C(=O)C=C(c6ccc(C(=O)O)cc6)C(C)(C)[C@@H]5CC[C@]43C)[C@@H]12 [Example 10, 4-((1S,3aS,5aR,5bR,7aS,11aS,11bS,13aR,13bR)-3a-((2-(1,1-dioxidothiomorpholino)ethyl)amino)-1-isopropyl-5a,5b,8,8,11a-pentamethyl-11-oxo-2,3,3a,4,5,5a,5b,6,7,7a,8,11,11a,11b,12,13,13a,13b-octadecahydro-1H-cyclopenta[a]chrysen-9-yl)benzoic acid] | 1.2 nM |
| CC(C)[C@@H]1CC[C@]2(C(=O)O)CC[C@]3(C)[C@H](CC[C@@H]4[C@@]5(C)C(=O)C=C(c6ccc(C(=O)O)cc6)C(C)(C)[C@@H]5CC[C@]43C)[C@@H]12 [Example 4, (1S,3aS,5aR,5bR,7aS,11aS,11bS,13aR,13bR)-9-(4-carboxyphenyl)-1-isopropyl-5a,5b,8,8,11a-pentamethyl-11-oxo-2,3,3a,4,5,5a,5b,6,7,7a,8,11,11a,11b,12,13,13a,13b-octadecahydro-1H-cyclopenta[a]chrysene-3a-carboxylic acid] | 29 nM |
| CC(C)[C@@H]1CC[C@]2(C(=O)O)CC[C@]3(C)[C@H](CC[C@@H]4[C@@]5(C)[C@@H](O)C=C(c6ccc(C(=O)O)cc6)C(C)(C)[C@@H]5CC[C@]43C)[C@@H]12 [Example 5, (1S,3aS,5aR,5bR,7aS,11S,11aS,11bS,13aR,13bR)-9-(4-carboxyphenyl)-11-hydroxy-1-isopropyl-5a,5b,8,8,11a-pentamethyl-2,3,3a,4,5,5a,5b,6,7,7a,8,11,11a,11b,12,13,13a,13b-octadecahydro-1H-cyclopenta[a]chrysene-3a-carboxylic acid] | 410 nM |
| CC(C)[C@@H]1CC[C@]2(N)CC[C@]3(C)[C@H](CC[C@@H]4[C@@]5(C)C(=O)C=C(c6ccc(C(=O)O)cc6)C(C)(C)[C@@H]5CC[C@]43C)[C@@H]12 [Example 9, 4-((1S,3aS,5aR,5bR,7aS,11aS,11bS,13aR,13bR)-3a-amino-1-isopropyl-5a,5b,8,8,11a-pentamethyl-11-oxo-2,3,3a,4,5,5a,5b,6,7,7a,8,11,11a,11b,12,13,13a,13b-octadecahydro-1H-cyclopenta[a]chrysen-9-yl)benzoic acid] | 1.2 nM |
| CC(C)[C@@H]1CC[C@]2(C(=O)O)CC[C@]3(C)[C@H](CC[C@@H]4[C@@]5(C)C[C@@H]6O[C@]6(c6ccc(C(=O)O)cc6)C(C)(C)[C@@H]5CC[C@]43C)[C@@H]12 [Example 11, (1S,3aS,5aR,5bR,7aR,8aS,9aS,10aR,10bR,12aR,12bR)-8a-(4-carboxyphenyl)-1-isopropyl-5a,5b,8,8,10a-pentamethylicosahydro-1H-cyclopenta[7,8]chryseno[2,3-b]oxirene-3a-carboxylic acid] | 1310 nM |
| CC(C)[C@@H]1CC[C@]2(C(=O)NCCCN3CCS(=O)(=O)CC3)CC[C@]3(C)[C@H](CC[C@@H]4[C@@]5(C)[C@H](F)C=C(c6ccc(C(=O)O)cc6)C(C)(C)[C@@H]5CC[C@]43C)[C@@H]12 [Example 8, 4-((1S,3aS,5aR,5bR,7aS,11R,11aS,11bS,13aR,13bR)-3a-((3-(1,1-dioxidothiomorpholino)propyl)carbamoyl)-11-fluoro-1-isopropyl-5a,5b,8,8,11a-pentamethyl-2,3,3a,4,5,5a,5b,6,7,7a,8,11,11a,11b,12,13,13a,13b-octadecahydro-1H-cyclopenta[a]chrysen-9-yl)benzoic acid] | 3.31 nM |
| C=C(C)[C@@H]1CC[C@]2(C(=O)O)C[C@H](O)[C@]3(C)[C@H](CC[C@@H]4[C@@]5(C)CC=C(c6ccc(C(=O)O)cc6)C(C)(C)[C@@H]5C[C@H](O)[C@]43C)[C@@H]12 [Example 2, (1R,3aS,5S,5aR,5bR,6S,7aR,11aS,11bR,13aR,13bR)-9-(4-carboxyphenyl)-5,6-dihydroxy-5a,5b,8,8,11a-pentamethyl-1-(prop-1-en-2-yl)-2,3,3a,4,5,5a,5b,6,7,7a,8,11,11a,11b,12,13,13a,13b-octadecahydro-1H-cyclopenta[a]chrysene-3a-carboxylic acid] | 1560 nM |
